The results in this text go back to US9562053B2, “Benzo-fused heterocyclic derivatives useful as agonists of GPR120” (Janssen Pharmaceutica NV, priority 2013, dated 2017).

SMILES strings stand for the structures.

For the assay, the target named is T1, Human GPR120 short form (Homo sapiens, UniProt Q5NUL3).
T1 construct: expressed in transfected cells
T1 sequence (Q5NUL3 1-361): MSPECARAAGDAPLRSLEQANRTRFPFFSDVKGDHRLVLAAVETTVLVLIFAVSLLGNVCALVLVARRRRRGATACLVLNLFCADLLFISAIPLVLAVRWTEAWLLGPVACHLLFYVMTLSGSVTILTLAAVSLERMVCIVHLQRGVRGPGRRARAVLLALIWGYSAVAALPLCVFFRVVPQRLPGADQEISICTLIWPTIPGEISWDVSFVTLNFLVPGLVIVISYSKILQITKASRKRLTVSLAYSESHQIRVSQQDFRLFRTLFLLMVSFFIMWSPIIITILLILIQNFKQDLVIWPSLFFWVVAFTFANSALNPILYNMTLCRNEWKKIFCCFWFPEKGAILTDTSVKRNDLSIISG
Nature of the assay: Human GPR120 in Calcium Flux Assay, Procedure Calcium A (2500 cells/well). The assay is classed as cell-based. In a few lines: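 HEK293 cells stably expressing GPR120 short isoform, 2500 cells/well, serum-starved 1 h, loaded with Fluo-4 NW plus probenecid (30 min 37 °C, 15 min RT). Compounds prepared at 0.012–100 μM, 0.2% DMSO final. FLIPR calcium signal over 300 s as Fmax−Fmin; EC50 from variable-slope fit (Hill <2).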
As for `CC#Cc1cc(COc2ccc(CCC(=O)O)c(C)c2C)c2oc(C)cc2c1` [Compound 83, 3-{2,3-Dimethyl-4-[(2-methyl-5-prop-1-yn-1-yl-1-benzofuran-7-yl)methoxy]phenyl}propanoic acid], the EC50 came to 51 nM. As for `CCc1cc2cc(Br)cc(COc3ccc(CCC(=O)O)c(C)c3C)c2o1` [Compound 45, 3-{4-[(5-Bromo-2-ethyl-1-benzofuran-7-yl)methoxy]-2,3-dimethylphenyl}propanoic acid], the EC50 was 24 nM.

For the compound `Cc1cc2cc(Cl)cc(COc3ccc(CCC(=O)O)c(C)c3C)c2s1` [Compound 91, 3-{4-[(5-Chloro-2-methyl-1-benzothiophen-7-yl)methoxy]-2,3-dimethylphenyl}propanoic acid], the concentration giving a half-maximal response (EC50) came out at 1920 nM. With `Cc1cc2cc3c(c(COc4ccc(CCC(=O)O)c(C)c4C)c2o1)OCCO3` [Compound 90, 3-{2,3-Dimethyl-4-[(7-methyl-2,3-dihydrofuro[2,3-g][1,4]benzodioxin-5-yl)methoxy]phenyl}propanoic acid], the EC50 was found to be 113 nM.

For the compound `CCc1cc2cc(Cl)c(OCC(C)C)c(COc3ccc(CCC(=O)O)c(C)c3C)c2o1` [Compound 67, 3-(4-{[5-Chloro-2-ethyl-6-(2-methylpropoxy)-1-benzofuran-7-yl]methoxy}-2,3-dimethylphenyl)propanoic acid], the EC50 is 93 nM.

With `Cc1c(CCC(=O)O)ccc(OCc2cc(F)cc3cc(C(C)C)oc23)c1C` [Compound 22, 3-(4-{[5-Fluoro-2-(1-methylethyl)-1-benzofuran-7-yl]methoxy}-2,3-dimethylphenyl)propanoic acid], the EC50 worked out at 166 nM. Under `CCc1cc2cc(Cl)c(OCC(F)(F)F)c(COc3ccc(CCC(=O)O)c(C)c3C)c2o1` [Compound 64, 3-(4-{[5-Chloro-2-ethyl-6-(2,2,2-trifluoroethoxy)-1-benzofuran-7-yl]methoxy}-2,3-dimethylphenyl)propanoic acid] stands 56 nM; under `Cc1cc2cc(OC(F)(F)F)cc(COc3ccc(CCC(=O)O)c(C)c3C)c2o1` [Compound 36, 3-(2,3-Dimethyl-4-{[2-methyl-5-(trifluoromethoxy)-1-benzofuran-7-yl]methoxy}phenyl)propanoic acid], 10 nM; under `CCc1cc2ccc(OC(F)F)c(COc3ccc(CCC(=O)O)c(C)c3C)c2o1` [Compound 70, 3-(4-{[6-(Difluoromethoxy)-2-ethyl-1-benzofuran-7-yl]methoxy}-2,3-dimethylphenyl)propanoic acid], 162 nM. The figure for `CCCc1cc2cc(C(F)(F)F)cc(COc3ccc(CCC(=O)O)c(C)c3C)c2o1` [Compound 37, 3-(2,3-Dimethyl-4-{[2-propyl-5-(trifluoromethyl)-1-benzofuran-7-yl]methoxy}phenyl)propanoic acid] is 43 nM; for `Cc1c(CCC(=O)O)ccc(OCc2cc(Cl)cc3cc(CC(F)F)oc23)c1C` [Compound 87, 3-(4-{[5-Chloro-2-(2,2-difluoroethyl)-1-benzofuran-7-yl]methoxy}-2,3-dimethylphenyl)propanoic acid] it is 79 nM.

With `CCCc1cc2cc(OC(F)(F)F)cc(COc3ccc(CCC(=O)O)c(C)c3C)c2o1` [Compound 35, 3-(2,3-Dimethyl-4-{[2-propyl-5-(trifluoromethoxy)-1-benzofuran-7-yl]methoxy}phenyl)propanoic acid], the EC50 came to 40 nM.

`Cc1cc2cc(Cl)cc(COc3c(F)cc(CCCO)cc3F)c2s1` [Compound 93, 3-{4-[(5-Chloro-2-methyl-1-benzothiophen-7-yl)methoxy]-3,5-difluorophenyl}propan-1-ol]: the EC50 is 1600 nM. With `CCc1cc2cc(Cl)c(OCCOC)c(COc3ccc(CCC(=O)O)c(C)c3C)c2o1` [Compound 63, 3-(4-{[5-Chloro-2-ethyl-6-(2-methoxyethoxy)-1-benzofuran-7-yl]methoxy}-2,3-dimethylphenyl)propanoic acid], the EC50 is 67 nM. `CCc1cc2cc(Cl)c(CC)c(COc3ccc(CCC(=O)O)c(C)c3C)c2o1` [Compound 61, 3-{4-[(5-Chloro-2,6-diethyl-1-benzofuran-7-yl)methoxy]-2,3-dimethylphenyl}propanoic acid]: the EC50 is 24 nM. On to `CCc1cc2cc(Cl)c(OC(F)F)c(COc3ccc(CCC(=O)O)c(C)c3C)c2o1` [Compound 69, 3-(4-{[5-Chloro-6-(difluoromethoxy)-2-ethyl-1-benzofuran-7-yl]methoxy}-2,3-dimethylphenyl)propanoic acid], for which the EC50 was found to be 45 nM.

Consider `CCc1cc2cc(OC(F)(F)F)cc(COc3ccc(CCC(=O)O)c4c3CCC4)c2o1` [Compound 52, 3-(7-{[2-Ethyl-5-(trifluoromethoxy)-1-benzofuran-7-yl]methoxy}-2,3-dihydro-1H-inden-4-yl)propanoic acid], for which the EC50 was found to be 29 nM.

For `Cc1c(CCC(=O)O)ccc(OCc2cc(F)cc3cc(CC(C)C)oc23)c1C` [Compound 23, 3-(4-{[5-Fluoro-2-(2-methylpropyl)-1-benzofuran-7-yl]methoxy}-2,3-dimethylphenyl)propanoic acid], the EC50 is 339 nM. Under `CCCc1cc(OCc2cc(OC(F)(F)F)cc3cc(CC)oc23)c(F)cc1CCC(=O)O` [Compound 50, 3-(4-{[2-Ethyl-5-(trifluoromethoxy)-1-benzofuran-7-yl]methoxy}-5-fluoro-2-propylphenyl)propanoic acid] stands 59 nM; under `CCc1cc2cc(Cl)c(C)c(COc3ccc(CCC(=O)O)c(C)c3C)c2o1` [Compound 40, 3-{4-[(5-Chloro-2-ethyl-6-methyl-1-benzofuran-7-yl)methoxy]-2,3-dimethylphenyl}propanoic acid], 34 nM. With `COCc1cc2cc(F)cc(COc3ccc(CCC(=O)O)c(C)c3C)c2o1` [Compound 21, 3-(4-{[5-Fluoro-2-(methoxymethyl)-1-benzofuran-7-yl]methoxy}-2,3-dimethylphenyl)propanoic acid], the EC50 is 159 nM.

As to `CCc1cc2cc(OC(F)F)cc(COc3ccc(CCC(=O)O)c(C)c3C)c2o1` [Compound 57, 3-(4-{[5-(Difluoromethoxy)-2-ethyl-1-benzofuran-7-yl]methoxy}-2,3-dimethylphenyl)propanoic acid], the EC50 turned out to be 17 nM. Turning to `Cc1c(CCC(=O)O)ccc(OCc2cc(F)cc3cc(C(F)F)oc23)c1C` [Compound 32, 3-(4-{[2-(Difluoromethyl)-5-fluoro-1-benzofuran-7-yl]methoxy}-2,3-dimethylphenyl)propanoic acid], the EC50 is 277 nM. In the case of `Cc1cc2c(COc3ccc(CCC(=O)O)c(C)c3C)cc(Cl)cc2o1` [Compound 81, 3-{4-[(6-Chloro-2-methyl-1-benzofuran-4-yl)methoxy]-2,3-dimethylphenyl}propanoic acid], the concentration for a half-maximal effect (EC50) amounted to 136 nM. Regarding `CC#Cc1cc(COc2ccc(CCC(=O)O)c(C)c2C)c2oc(CCC)cc2c1` [Compound 58, 3-{2,3-Dimethyl-4-[(2-propyl-5-prop-1-yn-1-yl-1-benzofuran-7-yl)methoxy]phenyl}propanoic acid], the EC50 was found to be 87 nM. With `Cc1c(CCC(=O)O)ccc(OCc2cc(Cl)cc3cn(C)nc23)c1C` [Compound 8, 3-{4-[(5-Chloro-2-methyl-2H-indazol-7-yl)methoxy]-2,3-dimethylphenyl}propanoic acid], the EC50 was 297 nM. Under `CCc1cc2cc(Cl)cc(COc3ccc(CCC(=O)O)c4c3CCC4)c2o1` [Compound 54, 3-{7-[(5-Chloro-2-ethyl-1-benzofuran-7-yl)methoxy]-2,3-dihydro-1H-inden-4-yl}propanoic acid] stands 36 nM; under `Cc1cc2cc3c(c(COc4ccc(CCC(=O)O)c(C)c4C)c2o1)OC(F)(F)O3` [Compound 89, 3-{4-[(2,2-Difluoro-6-methylfuro[2,3-f][1,3]benzodioxol-4-yl)methoxy]-2,3-dimethylphenyl}propanoic acid], 17 nM; under `CCc1cc2cc(Cl)c(OC(C)C)c(COc3ccc(CCC(=O)O)c(C)c3C)c2o1` [Compound 65, 3-(4-{[5-Chloro-2-ethyl-6-(1-methylethoxy)-1-benzofuran-7-yl]methoxy}-2,3-dimethylphenyl)propanoic acid], 96 nM.

Consider `CCc1cc2cc(F)cc(COc3c(F)cc(CCC(=O)O)cc3F)c2o1` [Compound 17, 3-{4-[(2-Ethyl-5-fluoro-1-benzofuran-7-yl)methoxy]-3,5-difluorophenyl}propanoic acid], for which the EC50 was found to be 345 nM.

On to `CCCc1cc2cc(Cl)cc(COc3ccc(CCC(=O)O)c(C)c3C#N)c2o1` [Compound 41, 3-{4-[(5-Chloro-2-propyl-1-benzofuran-7-yl)methoxy]-3-cyano-2-methylphenyl}propanoic acid], for which the EC50 turned out to be 291 nM. Under `Cc1nc2c(COc3ccc(CCC(=O)O)c(C)c3C)cc(Cl)cc2s1` [Compound 98, 3-{4-[(6-Chloro-2-methyl-1,3-benzothiazol-4-yl)methoxy]-2,3-dimethylphenyl}propanoic acid] stands 18 nM; under `Cc1c(CCC(=O)O)ccc(OCc2cc(OC(F)(F)F)cc3cc(CC(F)F)oc23)c1C` [Compound 96, 3-(4-{[2-(2,2-Difluoroethyl)-5-(trifluoromethoxy)-1-benzofuran-7-yl]methoxy}-2,3-dimethylphenyl)propanoic acid], 30 nM. For the compound `Cc1oc2cccc(COc3ccc(CCC(=O)O)c(C)c3C)c2c1C` [Compound 60, 3-{4-[(2,3-Dimethyl-1-benzofuran-4-yl)methoxy]-2,3-dimethylphenyl}propanoic acid], the EC50 is 162 nM.
